{
  "source": "patent US7807176B2",
  "about": "“Polypeptide promoting vascular endothelial cell growth” (Genomidea, Inc., priority 2004, dated 2010)",
  "key": {"c-fos promoter": {"tested_on": "c-fos promoter", "experiment": "c-fos promoter assay (c-fos-Luci luciferase)", "format": "cell-based, bovine", "experimental": "To further confirm the proliferation ability, an assay using a promoter of proto-oncogene c-fos, which is activated in the earliest stage of cell proliferation, was carried out. The gene c-fos-Luci having luciferase ligated under this promoter, and a candidate gene, were introduced in a weight ratio of 1:1 by lipofection into bovine vascular endothelial cells, and after 24 to 48 hours, the luciferase activity was measured."}, "[1]": {"tested_on": "human vascular smooth muscle cell (VSMC)", "experiment": "Cell proliferation after gene transfer into VSMC", "format": "cell-based", "details": "FIG. 4"}, "[2]": {"tested_on": "human aortic endothelial cells (HAEC)", "experiment": "Cell proliferation assay after gene transfer into HAEC (Cell Titer 96)", "format": "cell-based", "details": "HAEC as host cell; FIG. 4", "experimental": "A human heart cDNA library (a plasmid having human heart-derived cDNA ligated to plasmid pSPORT having a CMV promoter; GIBCO BRL) was introduced into E. coli DH12S, and the plasmid prepared from the E. coli. 200 μg of the plasmid was encapsulated in 10000 HAU of the HVJ-E gene-transfer vector (the gene-transfer vector, 3×10^9 particles, prepared in Example 2 in the present invention). As host cells, human aortic endothelial cells HEAC (Sanko Junyaku Co., Ltd.), about 5000 cells, were added together with medium to each well of a 96-well microtiter plate, then cultured overnight and used. 1/100 of the HVJ-E was added to each well containing the host cells, and then left at 37° C. for 30 minutes, followed by exchanging the medium. […]\nAfter2 weeks, a cell proliferation assay was carried out. Using Cell Titer 96 (Promega) as a reagent, the oxidoreduction of mitochondria was measured as a change in the color of the reagent and used as an indicator of cell growth. […]\nEach of nine clones having the insert was encapsulated respectively in HVJ-E and subjected to a second screening, and as a result, a gene showing a high proliferation activity was obtained. […] The gene c-fos-Luci having luciferase ligated under this promoter, and a candidate gene, were introduced in a weight ratio of 1:1 by lipofection into bovine vascular endothelial cells, and after 24 to 48 hours, the luciferase activity was measured. […]"}, "VEGF promoter": {"tested_on": "VEGF promoter", "experiment": "VEGF promoter assay (luciferase gene ligated to VEGF promoter)", "format": "cell-based, bovine", "details": "FIG. 3 right graph"}, "tube formation": {"tested_on": "tube formation", "experiment": "Tube formation, Kurabo Angiogenesis kit with CD31 staining and image quantification", "format": "cell-based, human", "details": "for Area (% increase): Example 5, Table 4; for Length (% increase): Example 5, Table 5; for tube Area % Increase / tube Length % Increase: Table 2", "experimental": "Using a Kurabo Angiogenesis kit (KZ-1000, Kurabo Industries Ltd.), tube formation was examined. A blank, vascular endothelial growth factor-A protein (VEGF-A), pVEGF plasmid (plasmid containing a gene encoding vascular endothelial growth factor), and pSPORT1 (a plasmid not containing a gene encoding vascular endothelial growth factor) were used as controls. […]\nCulture was carried out at 37° C. in a 5% CO2 incubator. The medium was exchanged on the 4th, 7th and 9th days of culture with a fresh medium containing the same additives.\nCD31 (PECAM-1) staining primary antibody (mouse anti-human CD31 antibody) was diluted 4,000-fold with a blocking solution (Dulbecco's phosphate buffer solution (PBS(−)) containing 1% BSA). 0.5 ml of this primary antibody solution was added to each well and incubated for 60 minutes at 37° C. After incubation was finished, each well was washed 3 times with 1 ml blocking solution.\nThen, 0.5 ml of a secondary antibody (goat anti-mouse IgG/alkali phosphatase conjugate) solution, diluted 500-fold with the blocking solution, was added to each well and incubated for 60 minutes at 37° C., and each well was washed 3 times with 1 ml distilled water. Separately, 2 tablets of BCIP/NBT were dissolved in 20 ml distilled water and filtered through a filter with a pore size of 0.2 μm, to prepare a substrate solution. 0.5 ml of the prepared BCIP/NBT substrate solution was added to each well and incubated at 37° C. until the tube turned deep violet (usually in 5 to 10 minutes). After incubation was finished, each well was washed 3 times with 1 ml distilled water, followed by removing the washing solution using suction, and the plate was left to air-dry. After drying, each well was observed under a microscope.\nEach well was observed under a 40× magnification microscope and a photograph of each well was taken. An enlarged photograph with the scale of 1 mm magnified 40-fold was taken (FIG. 5).\nEach of the resulting images was quantified with angiogenesis quantification software (KSW-5000U, Kurabo Industries Ltd.) according to the following method. The area (left in FIG. 6) and length (right in FIG. 6) of tubes formed in each visual field were measured on the scale by computer analysis with various indicators. […]"}, "[3]": {"tested_on": "phosphatidyl inositol-3-kinase/Akt (PI3K/Akt)", "details": "according to a previous study; cited from earlier work"}, "[4]": {"tested_on": "ERK (extracellular signal-related kinase)", "details": "according to a previous study; cited from earlier work"}, "HAEC": {"tested_on": "HAEC", "experiment": "MTS assay of endothelial cell proliferation with added peptide", "format": "cell-based, human", "details": "MTS, Table 3", "experimental": "F2 peptide was synthesized and then contacted in a varying amount with HAEC, and the ability thereof to proliferate the cells was examined by MTS assay. The MTS assay is a modification of the MTT assay, and is a method of measuring living cells based on a reaction of reducing tetrazolium salt (MTS) by living cells in culture, into a colored product formazan. Specifically, this assay is carried out as follows: • HAEC was inoculated onto a 96-well plate at a density of 750 cells/well. • 2 μl/well of each sample was added to 100 μl/well endothelial cell medium (1% FBS, without EGF). 2 μl/well was added every day (until Day 6) (the medium was not exchanged). • 20 μl measurement solution (Cell Titer 96 AQueous One Solution Cell Proliferation Assay (Promega)) was added to each well and mixed with 100 μl of the endothelial cell medium, and the old medium was removed by suction. A mixed suspension of the measurement solution and the cells was put in a volume of 120 μl/well and then incubated for 1 to 5 hours in a CO2 incubator. • The absorbance at 490 nm was measured with a plate reader.\nThe sample group (8 wells each) is as follows: • NC: Only EBM medium (endothelial cell medium) containing 1% FBS. The other samples were cultured by adding various peptides to this medium containing serum. • VEGF-A: Recombinant VEGF-A (KURABO) was added at a final concentration of 10 ng/ml. • F2-1: F2 peptide was added at a final concentration of 1 ng/ml. • F2-10: F2 peptide was added at a final concentration of 10 ng/ml. • F2-100: F2 peptide was added at a final concentration of 100 ng/ml. • F2-1000: F2 peptide was added at a final concentration of 1000 ng/ml."}, "HEAC endothelial cells": {"tested_on": "HEAC endothelial cells", "experiment": "Endothelial cell migration, modified Boyden chamber", "format": "cell-based, human", "experimental": "A polyvinyl pyrrolidone (PVP)-free polycarbonate membrane having […] (Neuro Probe Inc., Gaithersburg, Md.) was coated overnight with 0.1% gelatin and then washed with phosphate buffered saline to remove an excess of the gelatin coating. Then, 28 μl growth factor-free EBM2 medium supplemented with 1% FBS was arranged in a lower chamber, and the membrane was arranged on the lower chamber. […] The Boyden chamber was incubated at 37° C. for 4 hours. After incubation, the membrane was removed and the cells on the upper side of the membrane were removed. The cells on the lower side of the membrane were stained with Diff-Quick (Sysmex, Hyogo Pref., JP). The cells in each of randomly selected 8 visual fields (×100) were counted."}},
  "data": [
    {"substance": "f1: gene fragment, nucleotide sequence No. 2764-3073 in the frame of SART-2, ligated with expression vector pCDNA3.1", "values": [
      {"measurement": "activity in c-fos promoter assay of gene fragments in pCDNA3.1", "setting": "c-fos promoter; FIG. 8", "result": "no activity"}
    ]},
    {"substance": "p3743: gene clone (plasmid) from a human heart cDNA library; insert is nucleotide sequence No. 2364-3958 in SART-2", "values": [
      {"measurement": "proliferation activity in human vascular smooth muscle cells after gene introduction", "setting": "[1]", "result": "same as that of the negative control, GFP"},
      {"measurement": "proliferation ability in HAEC after gene introduction", "setting": "[2]", "result": "higher proliferation ability than HGF"},
      {"measurement": "activation of the VEGF promoter, compared with VEGF", "setting": "VEGF promoter", "result": "higher activation of the VEGF promoter than by VEGF"},
      {"measurement": "ability to activate the c-fos promoter, compared with VEGF", "setting": "c-fos promoter; FIG. 3 left graph", "result": "higher ability to activate the c-fos promoter than VEGF"},
      {"measurement": "luciferase activity (activation of c-fos promoter), compared with HGF", "setting": "c-fos promoter; candidate gene and c-fos-Luci 1:1 by lipofection, bovine vascular endothelial cells, after 24 to 48 hours, FIG. 2", "result": "higher luciferase activity than HGF"},
      {"measurement": "area and length of the formed tubes", "setting": "tube formation; supernatant of HAEC into which the gene had been introduced, FIG. 6", "result": "significantly greater"}
    ]},
    {"substance": "LL-37 peptide: peptide having antimicrobial activity, angiogenesis activity and artery-forming activity; rich in arginine, α-helix structure [reference compound]", "values": [
      {"measurement": "effect on PI3K/Akt activity", "setting": "[3]", "result": "increased rapidly"},
      {"measurement": "effect on ERK activity", "setting": "[4]", "result": "increased rapidly"},
      {"measurement": "endothelial proliferation Increase [times]", "setting": "HAEC; 100 ng/ml", "result": 1.279, "unit": "times"},
      {"measurement": "endothelial proliferation Increase [times]", "setting": "HAEC; 1 μg/ml", "result": 1.361, "unit": "times"},
      {"measurement": "Area (% increase)", "setting": "tube formation; 1 μg/ml", "result": 70.1, "unit": "%"},
      {"measurement": "Length (% increase)", "setting": "tube formation; 1 μg/ml", "result": 60.9, "unit": "%"},
      {"measurement": "Area (% increase)", "setting": "tube formation; 10 μg/ml", "result": 43, "unit": "%"},
      {"measurement": "Length (% increase)", "setting": "tube formation; 10 μg/ml", "result": 28, "unit": "%"}
    ]},
    {"substance": "RSLEGTDRFPFVRLKNSRKLEFKDIKGIKR (CONTROL PEPTIDE) [reference compound]", "values": [
      {"measurement": "migration % Increase", "setting": "HEAC endothelial cells; 1 μg/ml, 4 hours", "result": "−10.1", "unit": "%"},
      {"measurement": "cell migration activity (in words)", "setting": "HEAC endothelial cells; F2 0.01 to 1 μg/ml, control peptide 1 μg/ml, VEGF 50 ng/ml, FIG. 10", "result": "not observed"},
      {"measurement": "tube Area % Increase", "setting": "tube formation; 1 μg/ml", "result": "−12", "unit": "%"},
      {"measurement": "tube Length % Increase", "setting": "tube formation; 1 μg/ml", "result": "−11", "unit": "%"},
      {"measurement": "tube Area % Increase", "setting": "tube formation; 10 μg/ml", "result": "−9", "unit": "%"},
      {"measurement": "tube Length % Increase", "setting": "tube formation; 10 μg/ml", "result": "−3", "unit": "%"}
    ]}
  ]
}
